ChEMBL document CHEMBL3875146, “Mycobacterium Tuberculosis (MTB) GyrB inhibitors: An attractive approach for developing novel drugs against TB” (Eur J Med Chem, 2016)
≈ marks a conversion by molar mass, not a printed value.

What was measured:
[1] = system: Mycobacterium tuberculosis; assay: Antimycobacterial activity against Mycobacterium tuberculosis; assay type: functional
[2] = system: Mycobacterium tuberculosis; assay: Inhibition of Mycobacterium tuberculosis topoisomerase-1 using DNA as substrate preincubated for 15 mins followed by substrate addition measured after 30 mins by ethidium-bromide based agarose gel electrophoresis
[3] = target: T1, DNA gyrase subunit A/DNA gyrase subunit B (Mycobacterium tuberculosis (strain ATCC 25618 / H37Rv), UniProt P9WG45+P9WG47); assay: Inhibition of Mycobacterium tuberculosis DNA gyrase assessed as inhibition of DNA supercoiling activity using relaxed pBR322 as substrate incubated for 30 mins in presence of ATP by ethidium bromide staining based agarose gel electrophoresis
[4] = Inhibition of Escherichia coli DNA gyrase assessed as inhibition of DNA supercoiling activity using relaxed pBR322 as substrate incubated for 30 mins in presence of ATP by ethidium bromide staining based agarose gel electrophoresis
[5] = Inhibition of Staphylococcus aureus WCUH29 DNA gyrase expressed in Escherichia coli Rosetta 2 (DE3) pLysS cells assessed as inhibition of DNA supercoiling activity using relaxed pBR322 as substrate incubated for 30 mins in presence of ATP by ethidium bromide staining based agarose gel electrophoresis
DNA gyrase subunit B = DNA gyrase subunit B (Mycobacterium smegmatis, UniProt P0C559); assay: Inhibition of Mycobacterium smegmatis DNA gyrase B expressed in BL21(DE3)pLysS cells assessed as inhibition of […] activity in presence of ATP measured after 30 mins by malachite green dye based assay; assay type: cell-based, Mycolicibacterium smegmatis
[6] = target: T1, DNA gyrase subunit A/DNA gyrase subunit B; assay: (§1) Inhibition of Mycobacterium tuberculosis DNA gyrase assessed as inhibition of DNA supercoiling activity using relaxed pBR322 as substrate incubated for 30 mins by ethidium bromide staining based agarose gel electrophoresis
[7] = Cytotoxicity against mouse RAW264.7 cells assessed as inhibition of cell viability at 100 uM measured after 72 hrs by MTT assay relative to control; assay type: toxicity; conditions: read-out: INH
[8] = target: DNA gyrase subunit B (Mycobacterium smegmatis) (UniProt P0C559); assay: Inhibition of Mycobacterium smegmatis DNA gyrase-B ATPase activity after 30 mins by ammonium molybdate/malachite green-based phosphate detection assay; conditions: Mycolicibacterium smegmatis
[9] = system: Mycobacterium tuberculosis; assay: Antimycobacterial activity against Mycobacterium tuberculosis measured after 5 days by microplate alamar blue assay; assay type: functional; conditions: 120 h
[10] = target: DNA gyrase subunit A/DNA gyrase subunit B (Mycobacterium tuberculosis (strain ATCC 25618 / H37Rv)) (UniProt P9WG45+P9WG47); assay: as §1
Escherichia coli = assay: Antimicrobial activity against Escherichia coli; assay type: functional

Chain of DNA gyrase subunit B (P0C559 whole entry): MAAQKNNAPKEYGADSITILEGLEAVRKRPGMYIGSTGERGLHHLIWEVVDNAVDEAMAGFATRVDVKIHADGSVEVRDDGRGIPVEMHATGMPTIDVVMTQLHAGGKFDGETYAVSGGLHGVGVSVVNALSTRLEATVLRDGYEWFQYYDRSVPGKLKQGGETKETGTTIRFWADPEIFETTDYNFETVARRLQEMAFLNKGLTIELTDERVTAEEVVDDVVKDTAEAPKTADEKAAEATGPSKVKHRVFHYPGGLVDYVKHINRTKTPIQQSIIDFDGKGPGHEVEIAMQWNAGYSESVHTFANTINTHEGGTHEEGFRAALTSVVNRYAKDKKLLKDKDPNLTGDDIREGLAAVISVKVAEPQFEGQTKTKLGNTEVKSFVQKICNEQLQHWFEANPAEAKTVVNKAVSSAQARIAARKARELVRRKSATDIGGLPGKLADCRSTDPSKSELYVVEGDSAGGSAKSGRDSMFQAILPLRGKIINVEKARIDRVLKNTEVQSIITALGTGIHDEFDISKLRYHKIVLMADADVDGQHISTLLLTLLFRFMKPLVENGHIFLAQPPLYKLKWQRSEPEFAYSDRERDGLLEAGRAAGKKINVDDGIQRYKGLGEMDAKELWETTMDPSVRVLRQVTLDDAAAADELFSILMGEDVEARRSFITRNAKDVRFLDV
T1 sequence (P9WG45 whole entry): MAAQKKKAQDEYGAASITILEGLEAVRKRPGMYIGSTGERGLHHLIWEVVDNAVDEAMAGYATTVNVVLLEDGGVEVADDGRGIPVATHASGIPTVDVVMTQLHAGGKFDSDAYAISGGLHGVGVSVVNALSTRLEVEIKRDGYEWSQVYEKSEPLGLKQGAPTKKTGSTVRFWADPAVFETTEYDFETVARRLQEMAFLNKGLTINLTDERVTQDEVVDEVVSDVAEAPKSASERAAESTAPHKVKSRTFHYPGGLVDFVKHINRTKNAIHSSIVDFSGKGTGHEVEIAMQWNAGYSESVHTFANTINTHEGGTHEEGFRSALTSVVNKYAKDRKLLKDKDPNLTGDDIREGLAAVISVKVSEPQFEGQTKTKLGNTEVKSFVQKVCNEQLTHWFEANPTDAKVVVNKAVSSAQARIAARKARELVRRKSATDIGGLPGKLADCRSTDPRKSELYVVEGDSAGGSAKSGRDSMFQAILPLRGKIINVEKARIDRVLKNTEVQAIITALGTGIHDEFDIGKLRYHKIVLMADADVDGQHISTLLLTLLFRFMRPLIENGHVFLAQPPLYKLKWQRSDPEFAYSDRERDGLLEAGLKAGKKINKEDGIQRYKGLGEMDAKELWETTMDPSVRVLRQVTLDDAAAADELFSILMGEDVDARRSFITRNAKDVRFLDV
T1 sequence (P9WG47 whole entry): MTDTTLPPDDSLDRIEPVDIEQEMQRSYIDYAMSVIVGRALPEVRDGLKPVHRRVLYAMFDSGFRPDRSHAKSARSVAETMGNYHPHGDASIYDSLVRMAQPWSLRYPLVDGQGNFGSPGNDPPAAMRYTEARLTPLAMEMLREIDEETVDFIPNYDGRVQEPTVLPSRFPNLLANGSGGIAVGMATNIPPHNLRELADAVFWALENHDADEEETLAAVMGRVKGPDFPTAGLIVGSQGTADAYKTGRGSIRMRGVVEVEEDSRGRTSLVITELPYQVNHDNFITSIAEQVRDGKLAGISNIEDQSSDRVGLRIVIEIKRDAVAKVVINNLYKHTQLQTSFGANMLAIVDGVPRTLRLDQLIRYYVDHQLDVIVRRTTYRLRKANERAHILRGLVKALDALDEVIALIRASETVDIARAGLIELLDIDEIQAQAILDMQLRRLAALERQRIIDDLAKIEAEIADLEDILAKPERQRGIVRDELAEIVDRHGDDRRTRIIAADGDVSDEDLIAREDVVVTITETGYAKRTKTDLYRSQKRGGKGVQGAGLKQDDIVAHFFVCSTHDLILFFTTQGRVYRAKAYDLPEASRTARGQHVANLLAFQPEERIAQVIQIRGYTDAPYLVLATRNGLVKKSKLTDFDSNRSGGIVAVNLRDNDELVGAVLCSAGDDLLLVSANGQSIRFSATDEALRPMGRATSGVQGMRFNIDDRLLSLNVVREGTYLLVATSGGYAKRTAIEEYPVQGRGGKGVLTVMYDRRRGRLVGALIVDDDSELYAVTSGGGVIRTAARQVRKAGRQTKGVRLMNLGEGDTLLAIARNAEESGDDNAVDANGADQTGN
Chain of DNA gyrase subunit B (Mycobacterium smegmatis) (P0C559 2-675 limits assumed): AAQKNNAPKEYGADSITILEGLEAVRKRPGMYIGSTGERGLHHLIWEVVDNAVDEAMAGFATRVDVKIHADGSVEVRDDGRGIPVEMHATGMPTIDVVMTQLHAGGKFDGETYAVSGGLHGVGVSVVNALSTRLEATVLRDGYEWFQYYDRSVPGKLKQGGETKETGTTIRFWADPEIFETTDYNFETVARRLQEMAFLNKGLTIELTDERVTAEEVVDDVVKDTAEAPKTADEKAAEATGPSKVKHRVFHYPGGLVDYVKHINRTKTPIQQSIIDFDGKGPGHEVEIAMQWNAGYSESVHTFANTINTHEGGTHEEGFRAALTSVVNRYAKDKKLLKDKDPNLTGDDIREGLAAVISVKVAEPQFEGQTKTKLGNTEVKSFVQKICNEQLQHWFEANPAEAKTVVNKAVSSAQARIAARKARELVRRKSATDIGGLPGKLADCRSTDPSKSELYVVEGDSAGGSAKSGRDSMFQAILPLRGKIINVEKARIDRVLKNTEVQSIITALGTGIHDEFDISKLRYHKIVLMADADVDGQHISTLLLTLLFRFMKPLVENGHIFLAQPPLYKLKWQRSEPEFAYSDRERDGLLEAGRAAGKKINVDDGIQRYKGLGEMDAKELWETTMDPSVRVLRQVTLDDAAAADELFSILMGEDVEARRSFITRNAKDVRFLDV

COc1ccc2ncc(=O)n(-c3cnc4c(c3)CCC(NCc3ccc5c(n3)NC(=O)CO5)C4)c2n1 (configuration not stated)
MIC [1]: 300 to 2000 µg/mL (≈ 618 to 4120 µM)

Cc1ccc(-c2cnc3cc(-c4ccc5[nH]ccc5c4)cnc3n2)cc1
INH [2]: 0.1 µM

Cc1cc(O)c2c(c1)C(O)CCC2=O (configuration not stated)
IC50 [3]: > 200 µM

Cc1cc(O)c2c(c1)C(=O)C(c1c(C)cc3c(c1O)C(=O)C=CC3=O)=CC2=O [DIOSPYRIN]
IC50 [3]: 15 µM | IC50 [4]: 4 µM | IC50 [5]: 8 µM

O=C1COc2ccc(CNC3CCN(CC4CCc5c(F)ccc6ccc(=O)n4c56)CC3)nc2N1 (configuration not stated)
MIC [1]: 300 to 2000 µg/mL (≈ 628 to 4190 µM)

O=C1C(=O)N(CCN2CCN(NCc3ccccc3C(F)(F)F)CC2)c2ccccc21
IC50 (DNA gyrase subunit B): 51 µM | IC50 [6]: 25 µM | cytotoxicity at 72 h, 100 µM [7]: 4.2%

COc1ccc2c(c1)C(=O)C(=O)N2CCN1CCN(NCc2ccccc2)CC1
IC50 (DNA gyrase subunit B): 92 µM | IC50 [6]: 48.2 µM | cytotoxicity at 72 h, 100 µM [7]: 21.6%

Clc1cccc(-c2cnc3cc(-c4ccc5cn[nH]c5c4)cnc3n2)c1
INH [2]: 7.5 µM

CCNC(=O)Nc1nc2cc(-c3cncnc3)c(OCC3CCOCC3)nc2s1
INH [8]: 2.5 nM | MIC [9]: 60 µg/mL (≈ 145 µM)

O=C1C(=O)N(CCN2CCN(NCc3ccccc3C(F)(F)F)CC2)c2ccc(Cl)cc21
IC50 (DNA gyrase subunit B): 22.1 µM | IC50 [6]: 4.9 µM | cytotoxicity at 72 h, 100 µM [7]: 16.4%

COc1ccc2c(c1)C(=O)C(=O)N2CCN1CCN(NCc2ccccc2OCc2ccccc2)CC1
IC50 (DNA gyrase subunit B): 69.7 µM | IC50 [6]: 36.5 µM | cytotoxicity at 72 h, 100 µM [7]: 16.3%

Brc1c2ccccc2c(Br)c2nc(-c3ccco3)c(-c3ccco3)nc12
INH [2]: 0.1 µM

O=C1C(=O)N(CCN2CCN(NCc3ccc([N+](=O)[O-])o3)CC2)c2ccc(Cl)cc21
IC50 (DNA gyrase subunit B): 47.5 µM | IC50 [6]: 23.9 µM | cytotoxicity at 72 h, 100 µM [7]: 34.2%

O=C1C(=O)N(CCN2CCN(NCc3ccccc3F)CC2)c2ccc(F)cc21
IC50 (DNA gyrase subunit B): 20.3 µM | IC50 [6]: 4.2 µM | cytotoxicity at 72 h, 100 µM [7]: 22.1%

Cc1ccc2c(c1)C(=O)C(=O)N2CCN1CCN(NCc2ccccc2F)CC1
IC50 (DNA gyrase subunit B): 76 µM | IC50 [6]: 50 µM | cytotoxicity at 72 h, 100 µM [7]: 27.6%

O=C1C(=O)N(CCN2CCN(NCc3ccc(Cl)cc3Cl)CC2)c2ccc(F)cc21
IC50 (DNA gyrase subunit B): 43 µM | IC50 [6]: 24.2 µM | cytotoxicity at 72 h, 100 µM [7]: 13.9%

COc1ccccc1CNN1CCN(CCN2C(=O)C(=O)c3cc(C)ccc32)CC1
IC50 (DNA gyrase subunit B): 14.1 µM | IC50 [6]: 5 µM | cytotoxicity at 72 h, 100 µM [7]: 9.42%

COc1ccc2c(c1)C(=O)C(=O)N2CCN1CCN(NCc2ccccc2C(F)(F)F)CC1
IC50 (DNA gyrase subunit B): 61.5 µM | IC50 [6]: 39.1 µM | cytotoxicity at 72 h, 100 µM [7]: 10.5%

COc1ccc2c(c1)C(=O)C(=O)N2CCN1CCN(NCc2ccc(Cl)cc2Cl)CC1
IC50 (DNA gyrase subunit B): 15.8 µM | IC50 [6]: 4.1 µM | cytotoxicity at 72 h, 100 µM [7]: 26.4%

Cc1ccc2c(c1)C(=O)C(=O)N2CCN1CCN(NCc2cccc(Cl)c2Cl)CC1
IC50 (DNA gyrase subunit B): 53.6 µM | IC50 [6]: 43.1 µM | cytotoxicity at 72 h, 100 µM [7]: 27.8%

O=C1C(=O)N(CCN2CCN(NCc3ccccc3C(F)(F)F)CC2)c2ccc(F)cc21
IC50 (DNA gyrase subunit B): 10.6 µM | IC50 [6]: 3.6 µM | cytotoxicity at 72 h, 100 µM [7]: 20.6%

COc1ccc2c(c1)C(=O)C(=O)N2CCN1CCN(NCc2cccc(Cl)c2Cl)CC1
IC50 (DNA gyrase subunit B): 73 µM | IC50 [6]: 48.6 µM | cytotoxicity at 72 h, 100 µM [7]: 23.9%

O=C1C(=O)N(CCN2CCN(NCc3cccc(Cl)c3Cl)CC2)c2ccccc21
IC50 (DNA gyrase subunit B): 21.7 µM | IC50 [6]: 4.8 µM | cytotoxicity at 72 h, 100 µM [7]: 16.8%

Fc1ccc(/N=N/c2cnc3cc4ccccc4cc3n2)cc1
INH [10]: 50 µM

O=C1C(=O)N(CCN2CCN(NCc3ccccc3F)CC2)c2ccccc21
IC50 (DNA gyrase subunit B): 83 µM | IC50 [6]: 43.6 µM | cytotoxicity at 72 h, 100 µM [7]: 10.3%

O=C1C(=O)N(CCN2CCN(NCc3ccccc3OCc3ccccc3)CC2)c2ccc(Cl)cc21
IC50 (DNA gyrase subunit B): 13.8 µM | IC50 [6]: 3.8 µM | cytotoxicity at 72 h, 100 µM [7]: 26.8%

O=C1C(=O)N(CCN2CCN(NCc3ccc(Cl)cc3Cl)CC2)c2ccccc21
IC50 (DNA gyrase subunit B): 84 µM | IC50 [6]: 40.3 µM | cytotoxicity at 72 h, 100 µM [7]: 18.5%

Cc1cc(O)c2c(c1)C(=O)C=CC2=O [RAMENTACEONE]
IC50 [3]: 30 µM | IC50 [4]: 30 µM | IC50 [5]: 60 µM

c1ccc(N2CCC(Cc3nc4cc5ccccc5cc4nc3CN3CCN(c4ccccn4)CC3)CC2)nc1
INH [2]: 7.5 µM

O=C1C(=O)N(CCN2CCN(NCc3ccc(Cl)cc3Cl)CC2)c2ccc(Cl)cc21
IC50 (DNA gyrase subunit B): 68 µM | IC50 [6]: 50 µM | cytotoxicity at 72 h, 100 µM [7]: 24%

Cc1cc2c(c(O)c1-c1c(C)cc(O)c3c1C(=O)C=CC3=O)C(=O)C=CC2=O
IC50 [3]: 100 µM

Clc1ccc(/N=N/c2cnc3cc4ccccc4cc3n2)cc1
INH [10]: 12 µM

CCCCCCN1CCC(CCC(O)c2ccnc3ccc(OC)cc23)C(CC)C1 (configuration not stated)
MIC (Escherichia coli): 4000 µg/mL (≈ 9690 µM)

Cc1ccc2c(c1)C(=O)C(=O)N2CCN1CCN(NCc2ccccc2OCc2ccccc2)CC1
IC50 (DNA gyrase subunit B): 28.3 µM | IC50 [6]: 10 µM | cytotoxicity at 72 h, 100 µM [7]: 34.6%

CC1=CC(=O)c2ccccc2C1=O [MENADIONE]
IC50 [3]: > 200 µM

O=C1C(=O)N(CCN2CCN(NCc3ccccc3OCc3ccccc3)CC2)c2ccc(F)cc21
IC50 (DNA gyrase subunit B): 70.1 µM | IC50 [6]: 42.3 µM | cytotoxicity at 72 h, 100 µM [7]: 11.7%

Cc1ccc2c(c1)C(=O)C(=O)N2CCN1CCN(NCc2ccc(Cl)cc2Cl)CC1
IC50 (DNA gyrase subunit B): 79 µM | IC50 [6]: 48.9 µM | cytotoxicity at 72 h, 100 µM [7]: 25.3%

COc1ccccc1CNN1CCN(CCN2C(=O)C(=O)c3cc(Cl)ccc32)CC1
IC50 (DNA gyrase subunit B): 76 µM | IC50 [6]: 50 µM | cytotoxicity at 72 h, 100 µM [7]: 24%

Cc1cc(O)c2c(c1)C(=O)C=C(c1c(C)cc(O)c3c1C(=O)C=CC3=O)C2=O [NEODIOSPYRIN]
IC50 [3]: 50 µM

O=C1C(=O)N(CCN2CCN(NCc3cccc(Cl)c3Cl)CC2)c2ccc(Cl)cc21
IC50 (DNA gyrase subunit B): 43.2 µM | IC50 [6]: 25.6 µM | cytotoxicity at 72 h, 100 µM [7]: 17.4%

O=C1COc2ccc(CNC3CCN(CCn4c(=O)ccc5cc(F)ccc54)CC3)nc2N1
MIC [1]: 300 to 2000 µg/mL (≈ 664 to 4430 µM)

Cn1ccc2cc(-c3cnc4nc(-c5ccccc5)cnc4c3)ccc21
INH [2]: 0.1 µM

O=C1CSc2ccc(CNC3CCN(CC4CCN5C(=O)C=CC6N=CC(=O)N4C65)CC3)nc2N1 (configuration not stated)
MIC [1]: 300 to 2000 µg/mL (≈ 605 to 4040 µM)

O=C1C(=O)N(CCN2CCN(NCc3ccc([N+](=O)[O-])o3)CC2)c2ccccc21
IC50 (DNA gyrase subunit B): 20.2 µM | IC50 [6]: 4.6 µM | cytotoxicity at 72 h, 100 µM [7]: 30.6%

O=C1C(=O)N(CCN2CCN(NCc3ccccc3OCc3ccccc3)CC2)c2ccccc21
IC50 (DNA gyrase subunit B): 26.6 µM | IC50 [6]: 10 µM | cytotoxicity at 72 h, 100 µM [7]: 13.9%
